Test results taken from patent publication US8710043B2, “TRPM8 antagonists and their use in treatments” (Amgen Inc., priority 2011, dated 2014).

Key:
human TRPM8 = target: T1, human TRPM8 (Homo sapiens, UniProt Q7Z2W7); assay: Luminescence readout assay for measuring intracellular calcium, icilin activation; type: cell-based; conditions: CHO cells expressing human TRPM8, aequorin luminescence, 1 μM icilin activation; read-out: hTRPM8 IC50
T1 construct: expressed in transfected cells; host or cells: Chinese hamster ovary (CHO) cells, T-REx tetracycline-inducible system, co-transfected with aequorin
Outline: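 The read-out was luminescence reporting intracellular calcium, recorded by a CCD-based luminometer. Compounds were preincubated for 2.5 min before agonist challenge with 1 μM icilin. Human TRPM8 was expressed in a stable T-REx CHO line, induced with 0.5 μg/mL tetracycline the day before.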

[1] = system: icilin induced wet-dog shakes; assay: Inhibition of icilin induced shaking (wet-dog shakes) in rats; type: in vivo; conditions: Rattus norvegicus, po; dose 1 mg/kg p.o., 2 h before icilin; male Sprague Dawley rats; shakes counted for 30 min post-icilin
Description: Inhibition of Icilin Induced Shaking in Rats
Example compounds at doses ranging from 0.01 to 3 mg/kg (p.o, suspended in 5% Tween80/Oralplus or suspended in 2% HPMC-1% Tween-80 pH2.2 with MSA, 5 mL/kg) were administered to male Sprague Dawley rats (200-300 g, Harlan, n=6-8/treatment) 2 h before icilin to assess the ability to block the spontaneous wet-dog shake phenomena induced by icilin (i.p., suspended in 100% PEG400 at 0.5 mg/kg, 1 mL/kg or p.o., suspended in 2% HPMC-1% Tween-80 at 3 mg/kg, 2.5 mL/kg). Spontaneous wet-dog shakes were counted manually by two blinded observers or using LABORAS automation (Metris) for 30 min post-icilin.

T1 sequence (Q7Z2W7 whole entry): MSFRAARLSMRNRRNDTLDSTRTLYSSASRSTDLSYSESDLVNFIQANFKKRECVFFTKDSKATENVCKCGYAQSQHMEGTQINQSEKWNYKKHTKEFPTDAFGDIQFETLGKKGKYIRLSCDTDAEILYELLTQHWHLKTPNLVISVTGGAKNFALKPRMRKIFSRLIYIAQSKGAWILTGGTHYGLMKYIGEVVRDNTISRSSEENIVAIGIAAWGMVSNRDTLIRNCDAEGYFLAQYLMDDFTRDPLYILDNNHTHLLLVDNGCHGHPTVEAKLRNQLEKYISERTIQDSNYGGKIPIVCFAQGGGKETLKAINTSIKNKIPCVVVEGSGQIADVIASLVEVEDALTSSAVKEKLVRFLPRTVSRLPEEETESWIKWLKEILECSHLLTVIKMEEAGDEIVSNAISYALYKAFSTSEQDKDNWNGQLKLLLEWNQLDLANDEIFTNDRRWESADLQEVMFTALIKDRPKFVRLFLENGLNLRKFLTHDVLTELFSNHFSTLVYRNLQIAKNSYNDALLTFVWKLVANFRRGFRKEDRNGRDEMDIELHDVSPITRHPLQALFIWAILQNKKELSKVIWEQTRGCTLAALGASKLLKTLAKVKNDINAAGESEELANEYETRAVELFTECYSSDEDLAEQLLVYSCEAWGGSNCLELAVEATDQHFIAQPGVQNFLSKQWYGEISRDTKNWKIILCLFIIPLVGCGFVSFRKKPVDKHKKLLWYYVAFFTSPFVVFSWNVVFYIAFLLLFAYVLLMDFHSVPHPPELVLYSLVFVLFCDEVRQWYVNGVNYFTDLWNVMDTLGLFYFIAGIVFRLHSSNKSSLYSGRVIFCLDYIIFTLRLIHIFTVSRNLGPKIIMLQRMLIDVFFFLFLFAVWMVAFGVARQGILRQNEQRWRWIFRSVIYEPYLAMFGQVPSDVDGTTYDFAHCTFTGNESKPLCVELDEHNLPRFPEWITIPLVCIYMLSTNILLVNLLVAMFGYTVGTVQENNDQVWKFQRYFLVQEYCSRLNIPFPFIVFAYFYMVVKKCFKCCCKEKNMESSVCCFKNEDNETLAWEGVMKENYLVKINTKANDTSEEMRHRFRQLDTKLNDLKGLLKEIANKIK

SMILES | IC50 (human TRPM8) [nM] | inhibition in vivo at 1 mg/kg [1] [%]
Cn1cc(C(=O)N[C@@H](c2ccc(C(F)(F)F)cc2)c2ncccc2F)ccc1=O [Example 68, (S)-N-((3-fluoropyridin-2-yl)(4-(trifluoromethyl)phenyl)methyl)-1-methyl-6-oxo-1,6-dihydropyridine-3-carboxamide] | 14.2 | 100
O=C(N[C@@H](c1ccc(OC(F)(F)F)c(F)c1)c1ccccn1)c1ccc(=O)[nH]c1 [Example 293, (S)-N-((3-fluoro-4-(trifluoromethoxy)phenyl)(pyridin-2-yl)methyl)-6-oxo-1,6-dihydropyridine-3-carboxamide] | 13.7 | 96
O=C(N[C@@H](c1ccc(OC(F)(F)F)c(F)c1)c1ccccc1F)c1ccc(=O)[nH]c1 [Example 295, (S)-N-((3-fluoro-4-(trifluoromethoxy)phenyl)(2-fluorophenyl)methyl)-6-oxo-1,6-dihydropyridine-3-carboxamide] | 18 | 77
O=C(N[C@@H](c1ccc(OC(F)(F)F)c(F)c1)c1ncccc1F)c1ccc(=O)n(CCO)c1 [Example 297, (S)-N-((3-fluoro-4-(trifluoromethoxy)phenyl)(3-fluoropyridin-2-yl)methyl)-1-(2-hydroxyethyl)-6-oxo-1,6-dihydropyridine-3-carboxamide] | 16.8 | 78
C[C@@H](O)Cn1cc(C(=O)N[C@@H](c2ccc(OC(F)(F)F)c(F)c2)c2ncccc2F)ccc1=O [Example 299, N-((S)-(3-fluoro-4-(trifluoromethoxy)phenyl)(3-fluoropyridin-2-yl)methyl)-1-((R)-2-hydroxypropyl)-6-oxo-1,6-dihydropyridine-3-carboxamide] | 17.5 | 56
Cc1cccnc1[C@@H](NC(=O)c1ccc(=O)n(C)c1)c1ccc(OC(F)(F)F)c(F)c1 [Example 348, (S)-N-((3-fluoro-4-(trifluoromethoxy)phenyl)(3-methylpyridin-2-yl)methyl)-1-methyl-6-oxo-1,6-dihydropyridine-3-carboxamide] | 15.4 | 51
O=C(N[C@@H](c1ccc(C(F)(F)F)cc1)c1ncccc1F)c1ccc(=O)n(CCO)c1 [Example 370, (S)-N-((3-fluoropyridin-2-yl)(4-(trifluoromethyl)phenyl)methyl)-1-(2-hydroxyethyl)-6-oxo-1,6-dihydropyridine-3-carboxamide] | 33.7 | 50
Cc1cc(C(=O)N[C@@H](c2ccc(C(F)(F)F)cc2)c2ncccc2F)c[nH]c1=O [Example 373, (S)-N-((3-fluoropyridin-2-yl)(4-(trifluoromethyl)phenyl)methyl)-5-methyl-6-oxo-1,6-dihydropyridine-3-carboxamide] | 20.6 | 64
O=C(N[C@@H](c1ccc(OC(F)(F)F)cc1)c1ccccn1)c1ccc(=O)[nH]c1 [Example 377, (S)-6-oxo-N-(pyridin-2-yl(4-(trifluoromethoxy)phenyl)methyl)-1,6-dihydropyridine-3-carboxamide] | 20.7 | 94
Cn1c(=O)c(=O)n(O)c2ccc(C(=O)N[C@@H](c3ccc(OC(F)(F)F)c(F)c3)c3ncccc3F)cc21 [Example 436, (S)—N-((3-Fluoro-4-(trifluoromethoxy)phenyl)(3-fluoropyridin-2-yl)methyl)-1-hydroxy-4-methyl-2,3-dioxo-1,2,3,4-tetrahydroquinoxaline-6-carboxamide] | 22.4 | –
O=C(N[C@@H](c1ccc(OC(F)(F)F)c(F)c1)c1ncccc1F)c1cc2[nH]c(=O)oc2cn1 [Example 437, (S)—N-((3-Fluoro-4-(trifluoromethoxy)phenyl)(3-fluoropyridin-2-yl)methyl)-2-oxo-1,2-dihydrooxazolo[5,4-c]pyridine-6-carboxamide] | 225 | –

Continued by falling IC50 (human TRPM8), values first:

IC50 (human TRPM8) [nM] | SMILES | inhibition in vivo at 1 mg/kg [1] [%]
13.7 | O=C1Cc2cc(C(=O)N[C@@H](c3ccc(OC(F)(F)F)cc3)c3ncccc3F)ccc2N1 [Example 91, (S)-N-((3-fluoropyridin-2-yl)(4-(trifluoromethoxy)phenyl)methyl)-2-oxoindoline-5-carboxamide] | 100
11.4 | O=C(N[C@@H](c1ccc(OC(F)(F)F)c(F)c1)c1ncccc1F)c1cc2oc(=O)[nH]c2cn1 [Example 438, (S)—N-((3-Fluoro-4-(trifluoromethoxy)phenyl)(3-fluoropyridin-2-yl)methyl)-2-oxo-2,3-dihydrooxazolo[4,5-c]pyridine-6-carboxamide] | –
10.5 | O=C(N[C@@H](c1ccc(OC(F)(F)F)cc1F)c1ncccc1F)c1ccc(=O)[nH]c1 [Example 386, (S)-N-((2-fluoro-4-(trifluoromethoxy)phenyl)(3-fluoropyridin-2-yl)methyl)-6-oxo-1,6-dihydropyridine-3-carboxamide 2,2,2-trifluoroacetate] | 97
9.8 | O=C(N[C@@H](c1ccc(OC(F)(F)F)cc1)c1ncccc1F)c1ccc(=O)[nH]c1 [Example 1, (S)-N-((3-fluoropyridin-2-yl)(4-(trifluoromethoxy)phenyl)methyl)-6-oxo-1,6-dihydropyridine-3-carboxamide] | 100
9.7 | O=C(N[C@@H](c1ccc(OC(F)(F)F)c(F)c1)c1ncccc1F)c1ccc2[nH]c(=O)oc2n1 [Example 426, (S)—N-((3-fluoro-4-(trifluoromethoxy)phenyl)(3-fluoropyridin-2-yl)methyl)-2-oxo-1,2-dihydrooxazolo[5,4-b]pyridine-5-carboxamide] | 53
7.8 | Cn1cc(C(=O)N[C@@H](c2ccc(OC(F)(F)F)c(F)c2)c2ncccc2F)ccc1=O [Example 103, (S)-N-((3-fluoro-4-(trifluoromethoxy)phenyl)(3-fluoropyridin-2-yl)methyl)-1-methyl-6-oxo-1,6-dihydropyridine-3-carboxamide] | 97
5.1 | O=C(N[C@@H](c1ccc(OC(F)(F)F)cc1)c1ncccc1F)c1ccc2oc(=O)[nH]c2c1 [Example 79, (S)-N-((3-fluoropyridin-2-yl)(4-(trifluoromethoxy)phenyl)methyl)-2-oxo-2,3-dihydrobenzo[d]oxazole-5-carboxamide] | 99
4.5 | O=C(N[C@@H](c1ccc(C(F)(F)F)cc1)c1ncccc1F)c1ccc2oc(=O)[nH]c2c1 [Example 76, (S)-N-((3-fluoropyridin-2-yl)(4-(tnfluoromethyl)phenyl)methyl)-2-oxo-2,3-dihydrobenzo[d]oxazole-5-carboxamide] | 100
4.2 | O=C(N[C@@H](c1ccc(OC(F)(F)F)cc1)c1ccccn1)c1ccc2oc(=O)[nH]c2c1 [Example 362, (S)-2-oxo-N-(pyridin-2-yl(4-(trifluoromethoxy)phenyl)methyl)-2,3-dihydrobenzo[d]oxazole-5-carboxamide] | 98
